Experimental data reported in patent US8058243B2, “Method for treating a brain cancer with ifenprodil” (HSC Research and Development Limited Partnership, priority 2006, dated 2011).
Counter-ions that a name gives are not always drawn. Like-named read-outs stand apart in the source and are kept apart here.

Tested on: murine neural precursor cells (neurosphere cultures)
Test: HTS of LOPAC library against secondary neurosphere cultures, MTT proliferation assay at 3 μM, day 7 (z score, P value)
Type: cell-based, mouse
[1] = yes/no: significantly inhibited neurosphere proliferation (P<0.01) in primary screen
[2] = LOPAC library screen, 3 μM, MTT, neurosphere cultures
[3] = LOPAC primary screen, neurosphere MTT proliferation, 3 μM, day 7
[4] = LOPAC screen, neurosphere MTT proliferation, 3 μM, day 7
[5] = LOPAC library screen at 3 μM, secondary neurosphere cultures, MTT
[6] = yes/no: significantly inhibited neurosphere proliferation (P<0.01) in the primary screen
[7] = primary LOPAC screen, 3 μM, MTT, neurosphere proliferation
[8] = yes/no: significantly inhibited neurosphere proliferation in the primary screen
[9] = LOPAC library screen, 3 μM, MTT, secondary neurosphere cultures, day 7
[10] = yes = significantly inhibited neurosphere proliferation (P<0.01) in the primary screen
[11] = yes/no: significantly inhibited neurosphere proliferation in primary screen
[12] = LOPAC library screen at 3 μM, MTT, secondary neurosphere cultures, screened in singlets

## C[C@@H](N)[C@H]1CC[C@H](C(=O)Nc2ccncc2)CC1 [Y-27632 dihydrochloride]
168 h, 3 µM
  Z Score: −0.1255
  Z score: −0.125
[1]
  Activity: no

## N[C@H](CCC(=O)NCS(=O)(=O)O)C(=O)O [gamma-D-Glutamylaminomethylsulfonic acid]
[2]
  Z Score: −0.04649
[3]
  Z score: −0.046
[1]
  Activity: no

## CC1(C(=O)O)C2CCC(O2)C1(C)C(=O)O (centres unmarked) [Cantharidic Acid]
  Z Score: −0.5529
[4]
  Z score: −0.553
[1]
  Activity: no

## CN(C)CCN(Cc1cccs1)c1ccccn1 [Methapyrilene hydrochloride]
[2]
  Z Score: 0.6276
[3]
  Z score: 0.628

## Nc1nc2c(ncn2COCCO)c(=O)[nH]1 [Acyclovir]
[5]
  Z Score: −1.215
[3]
  Z score: −1.215
[6]
  Activity: no

## CC(COc1ccccc1)N(CCCl)Cc1ccccc1 (centres unmarked) [Phenoxybenzamine hydrochloride]
  Z Score: −1.512
[4]
  Z score: −1.512
[1]
  Activity: no

## N[C@H]1CONC1=O [L-Cycloserine]
[5]
  Z Score: −0.1552
[7]
  Z score: −0.155
[8]
  Activity: no

## NCCS(=O)(=O)O [Taurine]
[2]
  Z Score: 0.5328
[7]
  Z score: 0.533
[8]
  Activity: no

## Cn1c(=O)[nH]c2ncn(C)c2c1=O [1,7-Dimethylxanthine]
168 h, 3 µM
  Z Score: −0.6623
  Z score: −0.662
[1]
  Activity: no

## CC(C)NCC(O)COc1ccc(CC(N)=O)cc1 (centres unmarked) [(B1)-Atenolol]
[5]
  Z Score: −0.6583

## c1ccc2c(c1)OCC(C1=NCCN1)O2 (centres unmarked) [Idazoxan hydrochloride]
[9]
  Z Score: −1.448
[3]
  Z score: −1.448
[1]
  Activity: no

## COCCOC(=O)C1=C(C)NC(C)=C(C(=O)OC(C)C)C1c1cccc([N+](=O)[O-])c1 (centres unmarked) [Nimodipine]
[5]
  Z Score: −0.8542
[3]
  Z score: −0.854

## CNCC(O)c1ccc(O)cc1 (centres unmarked) [(B1)-Synephrine]
  Z Score: −0.1488

## O=C(O)Cc1ccccc1Nc1c(Cl)cccc1Cl [Diclofenac sodium]
[2]
  Z Score: 0.2988
[4]
  Z score: 0.299
[1]
  Activity: no

## CN1CCN(CC/C=C2/c3ccccc3Sc3ccc(S(=O)(=O)N(C)C)cc32)CC1 [Thiothixene hydrochloride]
  Activity: no
168 h, 3 µM
  Z Score: −1.899
  Z score: −1.899

## Cn1cnc([N+](=O)[O-])c1Sc1ncnc2nc[nH]c12 [Azathioprine]
[9]
  Z Score: −7.913
[3]
  Z score: −7.913
[10]
  Activity: yes

## CC(=O)SCC[N+](C)(C)C.[Cl-] [Acetylthiocholine chloride]
[7]
  Z score: 0.004
[8]
  Activity: no

## CN(C)CCC(c1ccccc1)c1ccccn1 (centres unmarked) [Pheniramine maleate]
[5]
  Z Score: −0.2062
[3]
  Z score: −0.206
[6]
  Activity: no

## O=C(O)CCCCCCCC(=O)O [Azelaic acid]
[2]
  Z Score: 0.1057
[3]
  Z score: 0.106
[11]
  Activity: no

## N#CC(C#N)=Cc1cc(O)c(O)c(O)c1 [Tyrphostin 25]
  Z Score: −0.2591
[3]
  Z score: −0.259
[11]
  Activity: no

## CNc1cc(NS(=O)(=O)c2ccc(N)cc2)nc(NC)n1.Cl.Cl [Ro 04-6790 dihydrochloride]
  Z Score: 0.3428
[3]
  Z score: 0.343
[11]
  Activity: no

## N#CC(C#N)=C(N)/C(C#N)=C/c1cc(O)c(O)c(O)c1 [Tyrphostin 51]
  Z Score: −0.9177
[7]
  Z score: −0.918
[8]
  Activity: no

## N=C(N)SCCc1cnc[nH]1 [Imetit dihydrobromide]
  Z Score: −0.2452
  Z score: −0.245

## CCn1cc(C(=O)O)c(=O)c2ccc(Cc3ccccc3)nc21 [Amfonelic acid]
[2]
  Z Score: 0.488
[4]
  Z score: 0.488
[1]
  Activity: no

## COC(=O)[C@H]1[C@H]2C[C@@H]3c4[nH]c5cc(OC)ccc5c4CCN3C[C@H]2C[C@@H](OC(=O)c2cc(OC)c(OC)c(OC)c2)[C@@H]1OC [Reserpine]
[5]
  Z Score: −1.023
[3]
  Z score: −1.023
[10]
  Activity: no

## C=CCN1CC[C@]23CCCC[C@H]2[C@H]1Cc1ccc(O)cc13 [Levallorphan tartrate]
[5]
  Z Score: −0.3465
[3]
  Z score: −0.346
[10]
  Activity: no

## Br.NC1CCc2cc(O)c(O)cc2C1 (centres unmarked) [6,7-ADTN hydrobromide]
[2]
  Z Score: 0.357
[4]
  Z score: 0.357
[1]
  Activity: no

## Cl.NCC(O)c1ccc(O)cc1 (racemic) [(±)-Octopamine hydrochloride]
[3]
  Z score: −1.567
[11]
  Activity: no

## CO/N=C(\C(=O)N[C@@H]1C(=O)N2C(C(=O)O)=C(CSc3nc(=O)c(=O)[nH]n3C)CS[C@H]12)c1csc(N)n1 [Ceftriaxone sodium]
  Activity: no
[12]
  Z Score: 2.23
[3]
  Z score: 2.230

## CCCc1c(-c2ccc(O)cc2)nn(-c2ccc(O)cc2)c1-c1ccc(O)cc1 [1,3,5-tris(4-hydroxyphenyl)-4-propyl-1H-pyrazole]
168 h, 3 µM
  Z Score: 0.7717
  Z score: 0.772
[1]
  Activity: no

## CNC(=O)Oc1ccc2c(c1)[C@]1(C)CCN(C)[C@@H]1N2C [(−)-Physostigmine]
  Z Score: −0.2178
[3]
  Z score: −0.218
[1]
  Activity: no

## C[n+]1cc2c3c(ccc2c2ccc4cc5c(cc4c21)OCO5)OCO3 [Sanguinarine chloride]
  Z Score: −10.01
[3]
  Z score: −10.008
[6]
  Activity: yes

## Cn1cnc2c(NC3CCCC3)ncnc21 [N6-Cyclopentyl-9-methyladenine]
[9]
  Z Score: −2.112
[3]
  Z score: −2.112
[11]
  Activity: no

## c1ccc2cc(-c3ncc[nH]3)ccc2c1 [Benazoline oxalate]
[5]
  Z Score: −0.3348
[4]
  Z score: −0.335
[1]
  Activity: no

## CCNC(=O)[C@H]1O[C@@H](n2cnc3c(NCc4ccccc4)ncnc32)[C@H](O)[C@@H]1O [N6-Benzyl-5′-N-ethylcarboxamidoadenosine]
[5]
  Z Score: −0.7976
[4]
  Z score: −0.798
[1]
  Activity: no

## CCC1(C2=NCCN2)Cc2ccccc2O1 (centres unmarked) [Efaroxan hydrochloride]
[9]
  Z Score: −2.338
[3]
  Z score: −2.338
[6]
  Activity: yes

## N[C@@H](Cc1ccc(N(CCCl)CCCl)cc1)C(=O)O [Melphalan]
  Z Score: −3.907
[3]
  Z score: −3.907
[6]
  Activity: yes

## COc1ccccc1N1CCN(CCN(C(=O)c2ccc(F)cc2)c2ccccn2)CC1.Cl.Cl [p-MPPF dihyrochloride]
[3]
  Z score: −2.160
[10]
  Activity: no

## Cn1c(=O)c2c(ncn2C)n(C)c1=O [Caffeine]
[2]
  Z Score: 0.4113
[4]
  Z score: 0.411

## CC(=O)[C@H]1CC[C@H]2[C@@H]3CC[C@H]4C[C@H](O)CC[C@]4(C)[C@H]3C(=O)C[C@]12C [5alpha-Pregnan-3alpha-ol-11,20-dione]
  Z Score: −0.8078
[3]
  Z score: −0.808

## O=C(NCCNCC(O)COc1ccc(O)cc1)N1CCOCC1 (centres unmarked) [Xamoterol hemifumarate]
168 h, 3 µM
  Z Score: −0.1243
  Z score: −0.124
[8]
  Activity: no

## NC(=O)CI [Iodoacetamide]
  Z Score: −8.706
[3]
  Z score: −8.706
[6]
  Activity: yes

## Cc1ccc(Cl)c(Nc2ccccc2C(=O)O)c1Cl [Meclofenamic acid sodium]
[12]
  Z Score: 2.233
[3]
  Z score: 2.233
[10]
  Activity: no

## NCC(=O)NCCC(c1ccccc1)c1ccccc1 [N-(3,3-Diphenylpropyl)glycinamide]
[9]
  Z Score: −1.243
[3]
  Z score: −1.243
[1]
  Activity: no

## N[C@@H](CCCC(=O)O)C(=O)O [L-2-aminoadipic acid]
168 h, 3 µM
  Z Score: −2.334
  Z score: −2.334
[6]
  Activity: yes

## CCCC(=O)NCCc1c2n(c3ccc(OC)cc13)Cc1ccccc1-2 [IIK7]
  Z Score: −0.3544
[3]
  Z score: −0.354
[1]
  Activity: no

## O=C(O)c1cc(=O)c2c(Cl)cc(Cl)cc2[nH]1 [5,7-Dichlorokynurenic acid]
[2]
  Z Score: 0.9011
[3]
  Z score: 0.901
[1]
  Activity: no

## NC/C=C/C(=O)O [(E)-4-amino-2-butenoic acid]
[9]
  Z Score: −2.149
[7]
  Z score: −2.149
[8]
  Activity: no

## Nc1nc2ccc(Cl)cc2c2nc(-c3ccco3)nn12 [CGS-15943]
  Z Score: 0.1783
  Z score: 0.178

## CCCN1CCO[C@@H]2c3cc(O)ccc3OC[C@H]21.Cl [S(+)-PD 128,907 hydrochloride]
  Z Score: −1.174
[3]
  Z score: −1.174
[11]
  Activity: no

## NC(Cc1ccc(Cl)cc1)C(=O)O (racemic) [(±)-p-Chlorophenylalanine]
[4]
  Z score: −0.247
[1]
  Activity: no

## CN1CCN(C2Cc3ccccc3Sc3ccc(Cl)cc32)CC1.O=C(O)/C=C\C(=O)O (centres unmarked) [(B1)-Octoclothepin maleate]
  Z Score: 1.473

## O=C(c1ccc(F)cc1)C1CCN(CCn2c(=O)[nH]c3ccccc3c2=O)CC1 [Ketanserin tartrate]
168 h, 3 µM
  Z Score: −3.325
  Z score: −3.325
[6]
  Activity: yes

## Cc1nc2n(c(=O)c1CCN1CCC(c3noc4cc(F)ccc34)CC1)CCCC2 [Risperidone]
  Z Score: 1.694
[3]
  Z score: 1.694
[11]
  Activity: no

## CC(C)(C)c1ccc(S(=O)(=O)/C=C/C#N)cc1 [Bay 11-7085]
  Z Score: 2.18
[4]
  Z score: 2.180
[1]
  Activity: no

## Cl.Nc1cc(Cl)c(N=C2NCCN2)c(Cl)c1 [p-Aminoclonidine hydrochloride]
  Z Score: −0.04776
[3]
  Z score: −0.048
[11]
  Activity: no
